Laboratory results published in paper PMC12350473, “Pharmacokinetics and brain tissue distribution of Gastrodia elata extract in normal and cerebral ischemic rats: a comparative study” (Frontiers in Pharmacology, 2025).

Legend:
[1] = Brain tissue distribution of GEB constituents after oral GEB extract in normal and MCAO rats; assay type: in vivo
Method: An independent cohort (n = 6/group) was sacrificed under deep anesthesia (pentobarbital sodium 40 mg/kg, i. p.) at 0.5 h, 1 h, 3 h, and 12 h post-final dosing. Cerebral perfusion was performed with ice-cold normal saline via left ventricular cannulation to eliminate residual blood. Whole brains were rapidly excised, weighed, and homogenized in four volumes of phosphate-buffered saline (pH 7.4) using a tissue grinder (Precellys 24, Bertin Technologies, France). Homogenates were centrifuged at 12,000 × g for 15 min at 4°C. The supernatants were filtered through 0.22 μm PVDF membranes and aliquoted into polypropylene tubes.
Weigh 300 mg of rat brain tissue and add 3 volumes of PBS solution. […] Collect the supernatant to obtain the test tissue homogenate. Take 400 µL of the homogenate, add 50 µL of internal standard solution and 1,150 µL of methanol, then vortex-mix for 5 min.

[2] = in vivo; settings: male, Sprague-Dawley, rat, po
[3] = Plasma pharmacokinetics of GEB constituents after oral GEB extract in normal and MCAO rats (UPLC-MS/MS, non-compartmental); settings: for AUC0-t / AUC0−∞ / CLz/F / Cmax / MRT0-t / T1/2 / Tmax / Vz/F: plasma
[4] = design: method as in Tang et al., 2015; settings: ref Tang et al., 2015; cited from earlier work
[5] = test system: cerebral ischemia in rats; test: Therapeutic effect of GEB extract on cerebral ischemia (MCAO): mNSS, body weight, survival, TTC staining; assay type: in vivo; settings: vs MCAO group, GEB low and high dose, nimodipine control
Method: High-dose GEB extract was prepared by adding 4.8 g of GEB extract in 40 mL of purified water to make a 120 mg/mL solution (calculated based on the human daily intake of 48 g of GEB).
The low dose of GEB was prepared by adding 2 g of GEB extract in 40 mL of purified water to make a 50 mg/mL solution (calculated based on the human daily intake of 20 g of GEB).
For preparing positive drugs, 2 nimodipine tablets (30 mg/tablet) were ground and added to 50 mL of purified water to make a 1.2 mg/mL solution (calculated based on the human daily intake of 120 mg of nimodipine).
After induction of deep anesthesia with pentobarbital (40 mg/kg), the rats were euthanized by cervical dislocation, followed by decapitation for brain removal. The brains were immediately flash-frozen in a freezer for 20 min. Then, the olfactory bulb and cerebellum were removed, the brain was cut into 6 coronal sections from anterior to posterior, stained with 1% TTC solution in the dark for 20 min at 37°C, and preserved in 4% paraformaldehyde for 30 min.
Rats were allocated into five groups: sham-operated (Sham), MCAO, low-dose GEB extract (GEB-L), high-dose GEB extract (GEB-H), and nimodipine control (NMDP). […] Longitudinal monitoring included body weight tracking and survival assessment, complemented by triphenyltetrazolium chloride (TTC) staining for cerebral infarction evaluation at study termination.

[6] = comparison among components after oral GEB extract
[7] = MCAO rats, oral GEB extract 4.8 g/kg, n = 8
[8] = normal rats, oral GEB extract 4.8 g/kg, n = 8
[9] = MCAO vs normal rats, range over PA, PB, PC, GAS, p < 0.05
[10] = MCAO rats, GEB extract 1,200 mg/kg oral gavage once daily for 3 days

## O=C(O)CC(O)(CC(=O)OCc1ccc(O[C@@H]2O[C@H](CO)[C@@H](O)[C@H](O)[C@H]2O)cc1)C(=O)OCc1ccc(O[C@@H]2O[C@H](CO)[C@@H](O)[C@H](O)[C@H]2O)cc1 (some centres unmarked) [PB, Parishin B]
[1]; [6]
  BBB penetration / cerebral distribution (in words): superior BBB permeability
[2]; plasma, 4.8 g/kg
  AUC0-t: 215 ± 37.4 ng·h/mL
  AUC(0-inf): 230 ± 50.9 ng·h/mL
  CL/F: 2790 mL/min/kg
  MRT last: 1.42 ± 0.13 h
  Tmax: 1 h
[3]; [7]
  AUC0-t: 108.0 ± 48.8 ng·h/mL
  AUC0−∞: 123.7 ± 38.8 ng·h/mL
  CLz/F: 5497 ± 1755 mL/min/kg
  Cmax: 48.8 ± 22.9 ng/mL
  MRT0-t: 1.63 ± 0.53 h
  T1/2: 2.16 ± 2.76 h
  Tmax: 0.72 ± 0.31 h
  Vz/F: 1,034.1 ± 1,468.2 L/kg
[3]; [8]
  Cmax: 112.8 ± 22.8 ng/mL
  T1/2: 1.01 ± 0.42 h
  Vz/F: 237.9 ± 98.4 L/kg
[3]; rat, in vivo
  CLz/F increase in MCAO rats compared to controls: 1.4–2.0 fold

## O=C(CC(O)(CC(=O)OCc1ccc(O[C@@H]2O[C@H](CO)[C@@H](O)[C@H](O)[C@H]2O)cc1)C(=O)O)OCc1ccc(O[C@@H]2O[C@H](CO)[C@@H](O)[C@H](O)[C@H]2O)cc1 [PC, Parishin C]
[1]; rat, in vivo, po
  BBB penetration / cerebral distribution (in words): superior BBB permeability
[2]; plasma, 4.8 g/kg
  AUC0-t: 56.4 ± 16.2 ng·h/mL
  AUC(0-inf): 71.1 ± 18.5 ng·h/mL
  CL/F: 1740 mL/min/kg
  Cmax: 21.5 ± 5.8 ng/mL
  MRT last: 1.78 ± 0.3 h
  Tmax: 0.94 ± 0.5 h
  half-life: 1.84 ± 0.56 h
[3]; [9]
  CLz/F increase in MCAO rats compared to controls: 1.4–2.0 fold
[3]; [7]
  AUC0-t: 30.1 ± 9.6 ng·h/mL
  AUC0−∞: 41.5 ± 15.7 ng·h/mL
  CLz/F: 3078 ± 1070 mL/min/kg
  Cmax: 12.1 ± 4.6 ng/mL
  MRT0-t: 1.68 ± 0.29 h
  T1/2: 2.35 ± 2.08 h
  Tmax: 1.13 ± 0.35 h
  Vz/F: 543.6 ± 442.8 L/kg
[3]; [8]
  Vz/F: 266.7 ± 78.4 L/kg

## O=C(CC(O)(CC(=O)OCc1ccc(O[C@@H]2O[C@H](CO)[C@@H](O)[C@H](O)[C@H]2O)cc1)C(=O)OCc1ccc(O[C@@H]2O[C@H](CO)[C@@H](O)[C@H](O)[C@H]2O)cc1)OCc1ccc(O[C@@H]2O[C@H](CO)[C@@H](O)[C@H](O)[C@H]2O)cc1 [PA, Parishin A]
[1]; [6]
  BBB penetration / cerebral distribution (in words): superior BBB permeability
[4]
  average GAS molecules released per parent compound: 1.5
  conversion efficiency of partial hydrolysis in vivo: 50%
[2]; plasma, 4.8 g/kg
  AUC0-t: 148 ± 21.9 ng·h/mL
  AUC(0-inf): 153 ± 23.5 ng·h/mL
  CL/F: 8150 mL/min/kg
  Cmax: 79.8 ± 9.8 ng/mL
  MRT last: 1.26 ± 0.09 h
  Tmax: 0.94 ± 0.18 h
  half-life: 0.74 ± 0.1 h
[3]; [7]
  AUC0-t: 75.4 ± 29.3 ng·h/mL
  AUC0−∞: 85.9 ± 25.0 ng·h/mL
  Cmax: 41.5 ± 18.5 ng/mL
  MRT0-t: 1.33 ± 0.27 h
  T1/2: 1.41 ± 1.75 h
  Tmax: 0.78 ± 0.31 h
  Vz/F: 1706.9 ± 1891.6 L/kg
[3]; [8]
  Vz/F: 518.7 ± 88.3 L/kg
[3]; rat, in vivo
  CLz/F increase in MCAO rats compared to controls: 1.4–2.0 fold

## COCCOC(=O)C1=C(C)NC(C)=C(C(=O)OC(C)C)C1c1cccc([N+](=O)[O-])c1 (centres unmarked) [NMDP, nimodipine]
[5]
  therapeutic effect on neurological deterioration, weight loss and infarction: improved these outcomes

## O=C(O)CC(O)(CC(=O)OCc1ccc(O[C@@H]2O[C@H](CO)[C@@H](O)[C@H](O)[C@H]2O)cc1)C(=O)O (some centres unmarked) [PE, Parishin E]
[1]; [6]
  BBB penetration / cerebral distribution (in words): moderate cerebral distribution
[1]; male, Sprague-Dawley, rat, brain, oral, 1200 mg/kg, MCAO rats, 12 h post-final dosing
  concentration at 12 h: 4.25 ± 2.46 ng/g
[2]; plasma, 1200 mg/kg
  AUC0-t: 1310 ng·h/mL
[2]; plasma, 4.8 g/kg
  AUC0-t: 1210 ng·h/mL
  AUC(0-inf): 1310 ng·h/mL
  CL/F: 697 mL/min/kg
  Cmax: 375 ± 45.5 ng/mL
  MRT last: 2.41 ± 0.33 h
  Tmax: 1.13 ± 0.35 h
  Vd/F: 78.6 ± 24.2 L/kg
  half-life: 1.82 ± 1.13 h
[3]; [10]
  AUC0-t: 1,148 ± 530 ng*h/mL
[3]; [7]
  AUC0-t: 1,107.5 ± 517.6 ng*h/mL
  AUC0−∞: 1,147.5 ± 530.4 ng*h/mL
  Cmax: 324.9 ± 129.0 ng/mL
  MRT0-t: 2.68 ± 0.76 h
  T1/2: 1.95 ± 1.03 h
  Tmax: 1.25 ± 0.46 h
  Vz/F: 113.9 ± 64.2 L/kg

## N[C@@H](CCC(=O)N[C@@H](CSCc1ccc(O)cc1)C(=O)NCC(=O)O)C(=O)O [4-HBG, S-(4-hydroxybenzyl) glutathione]
[2]; plasma, 1200 mg/kg
  AUC0-t: 120 ± 37 ng·h/mL
  Tmax: 2.3 ± 1.1 h
[2]; plasma, 4.8 g/kg
  AUC0-t: 113 ± 37.7 ng·h/mL
  AUC(0-inf): 120 ± 37 ng·h/mL
  CL/F: 1090 mL/min/kg
  Cmax: 24.1 ± 8.4 ng/mL
  MRT last: 4.18 ± 0.51 h
  Tmax: 3.5 ± 0.93 h
  Vd/F: 212 ± 102 L/kg
  half-life: 2.27 ± 1.14 h
[3]; [10]
  AUC0-t: 129 ± 53 ng·h/mL
[3]; MCAO rats, GEB extract oral
  Tmax: 2.03 ± 0.2 h
[3]; [7]
  AUC0-t: 124.8 ± 51.3 ng·h/mL
  AUC0−∞: 129.1 ± 52.8 ng·h/mL
  CLz/F: 1050 ± 367 mL/min/kg
  Cmax: 24.6 ± 11.2 ng/mL
  MRT0-t: 4.37 ± 0.50 h
  T1/2: 2.03 ± 0.24 h
  Tmax: 3.75 ± 0.71 h
  Vz/F: 186.8 ± 73.0 L/kg

## OCc1ccc(O[C@@H]2O[C@H](CO)[C@@H](O)[C@H](O)[C@H]2O)cc1 [GAS, gastrodin]
[1]; [6]
  BBB penetration / cerebral distribution (in words): limited BBB penetration
[1]; normal rats, brain tissue, GEB extract oral
  cerebral concentration: < 40 ng/mL
[2]; in vivo, 1200 mg/kg
  AUC0-t: 6620 ng·h/mL
  Cmax: 6620 ng/mL
[2]; in vivo, 4.8 g/kg
  AUC0-t: 6620 ng·h/mL
  AUC(0-inf): 6690 ng·h/mL
  CL/F: 38.3 mL/min/kg
  Cmax: 6620 ng/mL
  MRT last: 0.83 ± 0.06 h
  Tmax: 0.31 ± 0.12 h
  Vd/F: 2 ± 0.2 L/kg
  half-life: 0.6 ± 0.07 h
[3]; [10]
  AUC0-t: 4,836 ± 791 ng*h/mL
[3]; MCAO rats, GEB extract 1,200 mg/kg oral once daily for 3 days
  Cmax: 4,646 ± 1,195 ng/mL
[3]; [9]
  CLz/F increase in MCAO rats compared to controls: 1.4–2.0 fold
[3]; [7]
  AUC0-t: 4,835.6 ± 790.9 ng*h/mL
  AUC0−∞: 4,914.0 ± 728.3 ng*h/mL
  CLz/F: 53.3 ± 8.3 mL/min/kg
  Cmax: 4,646.2 ± 1,195.9 ng/mL
  MRT0-t: 0.88 ± 0.20 h
  T1/2: 0.58 ± 0.29 h
  Tmax: 0.27 ± 0.16 h
  Vz/F: 2.7 ± 1.6 L/kg

## OCc1ccc(O)cc1 [HBA, 4-hydroxybenzyl alcohol]
[3]; rats after oral GEB extract
  concentration in rats (in words): very low
